# Tests used:
# [1] = system: MDCK-MDR1 cell monolayers; experiment: Assessment of efflux in MDCK cells transfected with the human MDR1 gene (MDCK assay); type: in vitro ADME, canine; conditions: MDCK-MDR1, apical-to-basal, pH 7.4, 37° C.
# Description: Assessment of Efflux in Madin-Darby Canine Kidney Cells Transfected with the Human MDR1 Gene (MDCK Assay)
# Apparent permeability coefficients (PE) of the compounds across the MDCK-MDR1 cell monolayers are measured (pH 7.4, 37° C.) in apical-to-basal (AB) and basal-to-apical (BA) transport direction. AB permeability (PEAB) represents drug absorption from the blood into the brain and BA permeability (PEBA) drug efflux from the brain back into the blood via both passive permeability as well as active transport mechanisms mediated by efflux and uptake transporters that are expressed on the MDCK-MDR1 cells, predominantly by the overexpressed human MDR1 P-gp. The compounds are assigned to permeability/absorption classes by comparison of the AB permeabilities with the AB permeabilities of reference compounds with known in vitro permeability and oral absorption in the human. Identical or similar permeabilities in both transport directions indicate passive permeation, vectorial permeability points to additional active transport mechanisms. Higher PEBA than PEAB indicates the involvement of active efflux mediated by MDR1 P-gp. Active transport is concentration-dependently saturable.
# MDCK-MDR1 cells (1-2×10e5 cells/1 cm2 area) are seeded on filter inserts (Costar transwell polycarbonate or PET filters, 0.4 μm pore size) and cultured (DMEM) for 7 days. Subsequently, the MDR1 expression is boosted by culturing the cells with 5 mM sodium butyrate in full medium for 2 days. Compounds are dissolved in appropriate solvent (like DMSO, 1-20 mM stock solutions). […] The transport solution (TL) is applied to the apical or basolateral donor side for measuring A-B or B-A permeability (3 filter replicates), respectively. The receiver side contains the same buffer as the donor side. Samples are collected at the start and end of experiment from the donor and at various time intervals for up to 2 hours also from the receiver side for concentration measurement by HPLC-MS/MS or scintillation counting. Sampled receiver volumes are replaced with fresh receiver solution. Efflux ratio is calculated dividing the Papp (b-a) values by the Papp (a-b) values.
# [2] = Plasma protein binding with equilibrium dialysis, human plasma; type: in vitro ADME; conditions: human plasma, 1.0 μM, equilibrium dialysis 2 hours 37° C.
# Description: (§1) Plasma Protein Binding (Determination of Human and Rat Plasma Protein Binding with Equilibrium Dialysis)
# (§2) This equilibrium dialysis (ED) technique is used to determine the approximate in vitro fractional binding of test compounds to human and rat plasma proteins.
# (§3) Dianorm Teflon dialysis cells (micro 0.2) are used. Each cell consists of a donor and an acceptor chamber, separated by an ultrathin semipermeable membrane with a 5 kDa molecular weight cutoff.
# (§4) Stock solutions for each test compound are prepared in DMSO at 1 mM and diluted to a final concentration of 1.0 μM. The subsequent dialysis solutions are prepared in pooled human and rat plasma (with NaEDTA)
# (§5) Aliquots of 200 μL dialysis buffer (100 mM potassium phosphate, pH 7.4) are dispensed into the buffer chamber. Aliquots of 200 μL test compound dialysis solution are dispensed into the plasma chambers. Incubation is carried out for 2 hours under rotation at 37° C.
# (§6) At the end of the dialysis period, the dialysate is transferred into reaction tubes. The tubes for the buffer fraction contain 0.2 ml Acetonitril/water (80/20). Aliquots of 25 μl of the plasma dialysate are transferred into deep well plates and mixed with 25 μl Acetonitril/water (80/20), 25 μl buffer, 25 μl calibration solution and 25 μl Internal Standard solution. Protein precipitation is done by adding 200 μl Acetonitrile. Aliquots of 50 μl of the buffer dialysate are transferred into deep well plates and mixed with 25 μl blank plasma, 25 μl Internal Standard solution and 200 μl Acetonitril. Samples are measured on HPLC-MS/MS-Systems and evaluated with Analyst-Software.
# (§7) Percent bound is calculated with the formula: % bound=(plasma concentration−buffer concentration/plasma concentration)×100 and % free is calculated as difference.
# PDE10 = PDE10 (Homo sapiens (Human), UniProt Q9Y233); experiment: Phosphodiesterase (PDE) 10 assay with fluorescent substrate (IMAP, fluorescence polarization); type: biochemical; conditions: labeled cAMP 30 nM
# [3] = Plasma protein binding with equilibrium dialysis, rat plasma; type: in vitro ADME; conditions: rat plasma, 1.0 μM, equilibrium dialysis 2 hours 37° C.
# Description: as §1, §2, §3, §4, §5, §6, §7
# [4] = Metabolic stability in pooled human liver microsomes; type: in vitro ADME; conditions: human liver microsomes, 1 mg/mL protein, 1 μM compound, 37° C.
# Description: The metabolic degradation of the test compound was assayed at 37° C. with pooled liver microsomes from various species. The final incubation volume of 100 μl per time point contains TRIS buffer pH 7.6 at room temperature (0.1 M), magnesium chloride (5 mM), microsomal protein (1 mg/mL for human and dog, 0.5 mg/mL for other species) and the test compound at a final concentration of 1 μM. Following a short preincubation period at 37° C., the reactions were initiated by addition of betanicotinamide adenine dinucleotide phosphate, reduced form (NADPH, 1 mM), and terminated by transferring an aliquot into solvent after different time points. […] The half-life was determined by the slope of the semi-logarithmic plot of the concentration-time profile.
# Chain of PDE10 (Q9Y233 whole entry): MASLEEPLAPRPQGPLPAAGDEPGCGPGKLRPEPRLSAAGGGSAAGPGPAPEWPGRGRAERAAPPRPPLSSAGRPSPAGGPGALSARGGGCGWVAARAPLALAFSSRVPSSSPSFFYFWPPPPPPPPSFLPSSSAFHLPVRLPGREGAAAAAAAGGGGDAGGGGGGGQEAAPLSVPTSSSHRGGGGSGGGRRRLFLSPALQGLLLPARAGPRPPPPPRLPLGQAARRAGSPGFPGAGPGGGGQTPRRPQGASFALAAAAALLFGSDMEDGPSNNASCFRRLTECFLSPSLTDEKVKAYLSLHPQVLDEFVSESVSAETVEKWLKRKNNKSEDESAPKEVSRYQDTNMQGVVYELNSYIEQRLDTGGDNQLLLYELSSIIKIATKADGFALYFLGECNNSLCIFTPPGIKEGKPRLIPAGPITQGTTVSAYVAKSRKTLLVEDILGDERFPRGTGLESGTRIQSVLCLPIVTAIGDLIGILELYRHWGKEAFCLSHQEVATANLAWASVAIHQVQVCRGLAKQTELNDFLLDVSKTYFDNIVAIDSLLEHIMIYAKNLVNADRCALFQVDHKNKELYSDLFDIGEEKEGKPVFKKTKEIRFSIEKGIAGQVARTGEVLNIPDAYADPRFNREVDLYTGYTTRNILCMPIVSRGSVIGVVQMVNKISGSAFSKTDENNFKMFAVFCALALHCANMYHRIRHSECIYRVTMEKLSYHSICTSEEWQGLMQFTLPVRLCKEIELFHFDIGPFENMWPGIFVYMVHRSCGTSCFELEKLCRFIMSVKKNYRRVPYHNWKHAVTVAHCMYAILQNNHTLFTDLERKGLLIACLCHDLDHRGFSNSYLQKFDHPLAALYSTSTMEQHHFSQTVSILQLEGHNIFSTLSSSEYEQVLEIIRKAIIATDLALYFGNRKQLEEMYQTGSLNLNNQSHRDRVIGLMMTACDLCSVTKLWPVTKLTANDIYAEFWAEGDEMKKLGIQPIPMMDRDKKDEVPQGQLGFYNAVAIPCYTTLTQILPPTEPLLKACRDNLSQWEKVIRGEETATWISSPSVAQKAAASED
compound,measurement,setting,value
"Cc1cnc2c(C(=O)NC3(c4ccc(C(F)(F)F)cc4F)CCOCC3O)cnn2c1 (single isomer, unassigned) [Example 81b]",Papp (a-b) mean,[1],64 10-6 cm/s
same,PPB HUM % BINDING,[2],65.3%
same,IC50,PDE10,> 10 µM
same,PPB RAT % BINDING,[3],66.2%
same,Half-life t½ human,[4],>130 min
